Data on 15 compounds can be found in patent US8614178B2, “Pharmaceutical composition for treatment of dry eye syndrome” (Novaliq GmbH, priority 2009, dated 2013).

Like-named read-outs stand apart in the source and are kept apart here.

For data set [1], the system named is Sjögren syndrome patients. Particulars: oral, clinical studies; cited from earlier work.
A short description of data set [2]: Refractive index determination. Particulars: neat SFA.
Data set [3] is described as follows: Droplet size (weight and volume) from three droppers. Type of data set: physicochemical. The note with it: 25° C.; for Droplet volume: calculated; for Droplet weight: mean ± SD. Here is the method:
The droplet size of selected SFA's in terms of weight and volume of droplets from three droppers was determined and compared to that of purified water. The devices used for dispensing the droplets were (a) a 2 mL Pasteur pipette (wall thickness 0.53 mm; external tip diameter: 1.50 mm; length: 150 mm) made of glass, (b) a 20 G (0.9 mm×50 mm) injection needle, and (c) a dropper from a commercial eye drops product (Hylo-Vision). The droplet weights were measured at 25° C. using a laboratory balance; the volumes were calculated. Each test was performed 10 times.

For data set [4], the system named is rabbit eyes. As to the kind of experiment: Ex-vivo eye irritation test (EVEIT), abraded cornea.
Description: (§1) The eyes were fastened in chambers coupled micropump systems which continuously supplied the eyes with cultivation medium (Minimal Essential Medium, MEM T031-05) without fetal calf serum. The vitality of the eyes was monitored by regularly measuring the concentration of lactate and glucose in the chamber eluate. The corneal surface of the eyes was damaged by abrasion, using a dental ceramic abrasive (638XF, Meisinger). For each eye, four lesions of 3.0 to 4.5 mm^2 were prepared.
(§2) To evaluate the effect of F4H5 and F4H5 with 1 wt.-% ethanol on the cornea, an amount of approx. 0.25 to 0.50 μl of the respective test substance was dropped onto the centre of a cornea once every hour over a period of 12 hours, followed by a 12 hour resting period in which the cornea was submersed in culture medium to simulate a closed lid during a night phase. In addition, an aqueous solution of hyaluronic acid (0.1 wt.-%) was used as reference (hyaluronic acid is know to enhance the restoration of the corneal surface after damage), culture medium was used as control, and aqueous benzalkonium chloride solution (0.01 wt.-%) was used as negative control. Each test was performed over a period of 3 days. The effects were observed by optical coherence tomography (OCT), by digitally determining the dimensions of the lesions after staining with fluorescein, and finally by a histological evaluation of the corneal epithelium and endothelium at the end of each experiment.
(§3) Each of the two vehicles was tested in two separate runs.
Data set [5] deals with rabbit eyes.
Description: as §1, §2, §3

For the compound `CC1OC2(CS1)CN1CCC2CC1` (stereo not shown) [Cevimeline], the “Effect on DED symptoms” value in data set [1] is given as “effective in the management of symptoms associated with keratoconjunctivitis sicca of the Sjögren type”.
In turn, `CCCCC(F)(F)C(F)(F)C(F)(F)C(F)(F)F` [Example F4H4] came in with a Refractive index in data set [2] of 1.308.
Turning to `CCCCCC(F)(F)C(F)(F)C(F)(F)C(F)(F)F` [Example F4H5], the values for the Droplet volume in data set [3] (Eye dropper (Hylo-Vision)), in data set [3] (Glass pipette) and in data set [3] (Injection needle 20 G) were 9.6 ± 0.2 µL, 4.7 ± 0.3 µL and 2.0 ± 0.3 µL, respectively. The Droplet weight was determined as 12.4 ± 0.2 mg in data set [3] (Eye dropper (Hylo-Vision)); 6.0 ± 0.4 mg in data set [3] (Glass pipette, 10 tests); 2.6 ± 0.4 mg in data set [3] (Injection needle 20 G). In data set [2], this compound yielded a Refractive index of 1.3204. In the data set on rabbit eyes [4] (OCT imaging), the “Penetration into the cornea” value is “no indication of penetration of F4H5 into the cornea”. The “Morphological and histological evaluation of cornea” value in the data set on rabbit eyes [4] (end of test) is “had not only healed very well, but were also entirely clear at the end of the tests, with healthy and smooth surface morphology”. In the data set on rabbit eyes [4] (in words), the Physiological tolerability result was “better tolerated than culture medium”.
`CCCCCCC(F)(F)C(F)(F)C(F)(F)C(F)(F)F` [Example F4H6] had a Refractive index in data set [2] of 1.334.
On the same count and under the same terms, then `CCCCCCCC(F)(F)C(F)(F)C(F)(F)C(F)(F)F` [Example F4H7], with 1.3357; and `CCCCCCCCC(F)(F)C(F)(F)C(F)(F)C(F)(F)F` [Example F4H8], with 1.348; and `CCC(F)(F)C(F)(F)C(F)(F)C(F)(F)C(F)(F)C(F)(F)F` [Example F6H2], with 1.295.
As for `CCCCC(F)(F)C(F)(F)C(F)(F)C(F)(F)C(F)(F)C(F)(F)F` [Example F6H4], in data set [2], the Refractive index was determined as 1.306.
The compound `CCCCCCC(F)(F)C(F)(F)C(F)(F)C(F)(F)C(F)(F)C(F)(F)F` [Example F6H6] displayed a Refractive index in data set [2] of 1.3224.
As to `CCCCCCCC(F)(F)C(F)(F)C(F)(F)C(F)(F)C(F)(F)C(F)(F)F` [Example F6H7], the Refractive index in data set [2] stood at 1.3366.
Turning to `CCCCCCCCC(F)(F)C(F)(F)C(F)(F)C(F)(F)C(F)(F)C(F)(F)F` [Example F6H8], the “Healing of corneal lesions” value with rabbit eyes [5] is “all lesions healed fully during the experimental time”. For the same compound, the Droplet volume in data set [3] (Eye dropper (Hylo-Vision)) was 10.3 ± 0.3 µL; in data set [3] (Glass pipette), 5.0 ± 0.4 µL; in data set [3] (Injection needle 20 G), 2.5 ± 0.1 µL. For the same compound, the Droplet weight in data set [3] (Eye dropper (Hylo-Vision)) is on record as 13.7 ± 0.4 mg; in data set [3] (Glass pipette, 10 tests), 6.6 ± 0.6 mg; in data set [3] (Injection needle 20 G), 3.4 ± 0.2 mg. The same compound returned a Refractive index in data set [2] of 1.3432.
`CCCCCCCCCC(F)(F)C(F)(F)C(F)(F)C(F)(F)C(F)(F)C(F)(F)F` [Example F6H9]: in data set [2], the Refractive index amounted to 1.3494.
`O` [Water, water, reference compound]: the Droplet volume in data set [3] (Eye dropper (Hylo-Vision)) is 36.1 ± 2.2 µL; in data set [3] (Glass pipette) it was 31.3 ± 1.4 µL; in data set [3] (Injection needle 20 G), 11.1 ± 0.9 µL. Also, the Droplet weight is listed as 36.0 ± 2.2 mg in data set [3] (Eye dropper (Hylo-Vision)); 31.2 ± 1.4 mg in data set [3] (Glass pipette, 10 tests); 11.0 ± 0.9 mg in data set [3] (Injection needle 20 G).
For `CC[C@@H]1C(=O)OC[C@@H]1Cc1cncn1C` [pilocarpine], in data set [1], the “Effect on DED symptoms” value was “significantly improved DED symptoms”.
Consider benzalkonium chloride [BAC], for which, in the data set with rabbit eyes [5], the “Healing of corneal lesions” value is reported as “rapid growth of the lesions eventually leading to a complete disintegration of the corneal epithelium”; the “Morphological and histological evaluation of cornea” value is listed as “complete disintegration of the corneal epithelium, but also a major impairment of the complete cornea even including the endothelium”.
